This is an account of results in patent US4791197A, “Cephalosporin compounds” (priority 1984, dated 1988).

Common to all, as to assay: MIC against growth of bacteria by agar-dilution method
Holding throughout (type): cell-based

Assay [1] relates to Escherichia coli NIHJ JC-2. The settings on record: NIHJJC2. The source says:
(§1) The compounds of this invention are all novel compounds.

In assay [2] the test system is Klebsiella pneumoniae PCI 602. The note with it: PCI602.
Source text: as §1

A further assay deals with Proteus mirabillis GN 79.
Source text: as §1

In the next assay the test system is Proteus rettgeri GN 624. The note with it: Providencia rettgeri, GN624.
Source text: as §1

The subject of the next assay is Proteus vulgaris GN 76. The note with it: GN76.
Source text: as §1

The test system of assay [3] is Pseudomonas aeruginosa MB 3833. The settings on record: MB3833.
Source text: as §1

Assay [4] relates to Salmonella typhimurium LT-2. The note with it: Salmonella enterica.
Source text: as §1

The subject of assay [5] is Serratia marcescens No. 1.
Source text: as §1

Assay [6] has as its system Staphylococcus aureus 209P JC-1.
Source text: as §1

For assay [7], the system named is Staphylococcus aureus Smith.
Source text: as §1

Counter-ions that a name gives are not always drawn.

With `C[n+]1ccc(SCC2=C(C(=O)O)N3C(=O)C(NC(=O)/C(=C/C(=O)O)c4csc(N)n4)C3SC2)cc1` (stereo not drawn) [Example 10, 7-[2-(2-aminothiazol-4-yl)-2-carboxymethylene-acetamido]-3-(1-methylpyridinium-4-yl)thiomethyl-3-cephem-4-carboxylic acid (E-isomer) trifluoroacetate], the minimum inhibitory concentration (MIC) in [1] is 12.5 µg/mL; in assay [2] it was 25 µg/mL; against Proteus mirabillis GN 79 it was 50 µg/mL; with Proteus rettgeri GN 624, 3.13 µg/mL; in the assay on Proteus vulgaris GN 76, above 50 µg/mL; in assay [3] it was above 50 µg/mL. Besides, the MIC turned out to be 12.5 µg/mL in assay [4], 25 µg/mL in [5], 0.78 µg/mL in [6] and 0.78 µg/mL in [7].
Consider `Cc1nnc(SCC2=C(C(=O)O)N3C(=O)C(NC(=O)/C(=C\C(=O)O)c4csc(N)n4)C3SC2)s1` (stereo not drawn) [Example 2, 7-[2-(2-aminothiazol-4-yl)-2-carboxymethylene-acetamido]-3-(5-methyl-1,3,4-thiadiazol-2-yl)thiomethyl-3-cephem-4-carboxylic acid (Z-isomer) trifluoroacetate], for which the minimal inhibitory concentration (MIC) in [1] was 0.78 µg/mL; in [2], 0.78 µg/mL; in the assay on Proteus mirabillis GN 79, 0.2 µg/mL; with Proteus rettgeri GN 624, at most 0.025 µg/mL; against Proteus vulgaris GN 76, 0.39 µg/mL; in assay [3] it was above 50 µg/mL. Moreover, the MIC stood at 0.39 µg/mL in assay [4], 0.1 µg/mL in assay [5], 3.13 µg/mL in assay [6] and 3.13 µg/mL in assay [7].
Regarding `C[n+]1ccc(SCC2=C(C(=O)O)N3C(=O)C(NC(=O)/C(=C\C(=O)O)c4csc(N)n4)C3SC2)cc1` (stereo not drawn) [Example 7, 7-[2-(2-aminothiazol-4-yl)-2-carboxymethyleneacetamido]-3-(1-methylpyridinium-4-yl)thiomethyl-3-cephem-4-carboxylic acid (Z-isomer) trifluoroacetate], the MIC was 0.39 µg/mL in assay [1]; 0.78 µg/mL in [2]; 1.56 µg/mL in the assay with Proteus mirabillis GN 79; 0.1 µg/mL in the assay with Proteus rettgeri GN 624; 3.13 µg/mL against Proteus vulgaris GN 76; above 50 µg/mL in assay [3]. Besides, the MIC in assay [4] turned out to be 0.39 µg/mL; in assay [5], 0.78 µg/mL; in [6], 0.2 µg/mL; in assay [7], 0.39 µg/mL.

The term MIC denotes the lowest concentration that inhibits growth of the organism.
